Experimental findings from US10399933B2, “Inhibitors of indoleamine-2,3-dioxygenase for the treatment of cancer” (BRISTOL-MYERS SQUIBB COMPANY, priority 2015, dated 2019) are described below.

The experiment concerns the target human IDO1 (Homo sapiens, UniProt P14902). Briefly: Human IDO-1 inhibitory activity in HEK cells (human IDO1/HEK293 cellular assay). The format is cell-based. Details: expressed in transfected cells. The conditions noted are these: HEK human IDO-1 cellular assay; 500 nM reference standard = 100% inhibition, DMSO = 0%. The method, then:
They were cultured in medium (DMEM with 10% FBS) containing 1 mg/ml G418 for two weeks.
The human IDO1/HEK293 cells were seeded at 10,000 cells per 50 μL per well with RPMI/phenol red free media contains 10% FBS in a 384-well black wall clear bottom tissue culture plate (Matrix Technologies LLC) 100 nL of certain concentration of compound was then added to each well using ECHO liquid handling systems. The cells were incubated for 20 hours in 37° C. incubator with 5% CO2.
The compound treatments were stopped by adding trichloroacetic acid (Sigma-Aldrich) to a final concentration at 0.2%. The cell plate was further incubated at 50° C. for 30 minute. The equal volume supernatant (20 μL) and 0.2% (w/v) Ehrlich reagent (4-dimethylaminobenzaldehyde, Sigma-Aldrich) in glacial acetic acid were mixed in a new clear bottom 384-well plate. This plate was then incubated at room temperature for 30 minute. The absorbance at 490 nm was measured on Envision plate reader.

Chain of human IDO1 (P14902 whole entry): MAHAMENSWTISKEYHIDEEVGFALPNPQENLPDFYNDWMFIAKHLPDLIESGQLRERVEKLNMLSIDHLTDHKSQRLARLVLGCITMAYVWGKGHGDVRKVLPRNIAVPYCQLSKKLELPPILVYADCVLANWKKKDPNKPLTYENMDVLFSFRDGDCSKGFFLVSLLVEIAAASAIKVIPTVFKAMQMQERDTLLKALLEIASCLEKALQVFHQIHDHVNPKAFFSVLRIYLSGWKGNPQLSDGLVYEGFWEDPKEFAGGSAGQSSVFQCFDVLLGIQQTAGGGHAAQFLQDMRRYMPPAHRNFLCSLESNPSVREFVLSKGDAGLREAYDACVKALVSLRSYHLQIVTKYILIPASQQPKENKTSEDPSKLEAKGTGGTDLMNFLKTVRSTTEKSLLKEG

Usually IC50 stands for the midpoint of a concentration-inhibition curve. A low value points to higher potency. `COCC(CC(=O)O)c1cc(F)c(N(CC(C)C)CC(C)C)c(NC(=O)Nc2ccc(OC(F)(F)F)cc2)c1` (single isomer, unassigned) [Example 1197, 3-(4-(Diisobutylamino)-3-fluoro-5-(3-(4-(trifluoromethoxy)phenyl)ureido)phenyl)-4-methoxybutanoic Acid] registered an IC50 below 50 nM.

In turn, `CCN(c1ccc(C(CC(=O)O)c2ccccc2)cc1NC(=O)Nc1cc(C)on1)C1CCOCC1` (single isomer, unassigned) [Example 597, 3-(4-(ethyl(tetrahydro-2H-pyran-4-yl)amino)-3-(3-(5-methylisoxazol-3-yl)ureido)phenyl)-3-phenylpropanoic acid] registered an IC50 above 50 nM.

Take `CCC(CC(=O)O)c1ccc(N(CC)C2CCCOC2)c(Nc2ccc(Cl)cc2)c1` (single isomer, unassigned) [Example 60 E1, 3-(3-((4-Chlorophenyl)amino)-4-(ethyl(tetrahydro-2H-pyran-3-yl)amino)phenyl)pentanoic Acid]: the half-inhibitory concentration (IC50) was below 5 nM.

Regarding `CCN(c1ccc(C(COC(C)C)CC(=O)O)cc1Nc1ccc(F)cc1)C1CCS(=O)(=O)CC1` (stereo not drawn) [Example 316], the IC50 was below 50 nM.

In turn, “3-(4-((1,1- dioxidotetrahydro-2H- thiopyran-4-yl)(ethyl) amino)-3-((4-fluorophenyl) amino)phenyl)-4- isopropoxybutanoic acid [Example 300]” had an IC50 below 50 nM.

Molecule `CCN(c1ccc(C(COC(C)C)CC(=O)O)cc1Nc1ccc(F)cc1)C1CCS(=O)(=O)CC1` (stereo not drawn) [Example 336] showed an IC50 below 50 nM.

With `CCN(c1ccc(C(C)CC(=O)O)cc1Nc1ccc(Cl)cc1)C1CCOCC1` (single isomer, unassigned) [Example 612 E2, 3-(3-((4-Chlorophenyl)amino)-4-(ethyl(tetrahydro-2H-pyran-4-yl)amino)phenyl)butanoic Acid], the IC50 was below 5 nM.

In turn, `CCC(CC(=O)O)c1cc(F)c(N(CC(C)C)C2CCCCC2)c(NC(=O)Cc2ccc(C)cc2)c1` (single isomer, unassigned) [Example 1101 E2] had an IC50 below 5 nM.

Consider `CCC(CC(=O)O)c1ccc(N2C[C@@H]3C[C@H]2CN3Cc2ccccc2)c(Nc2ccc(C)cc2)c1` (single isomer, unassigned) [Example 666 E2], for which the IC50 was below 5 nM.

As for `CCOc1ncc(Nc2cc(C(CC)CC(=O)O)cc(F)c2N(CC(C)C)CC(C)C)cn1` (single isomer, unassigned) [Example 119, 3-(4-(diisobutylamino)-3-((2-ethoxypyrimidin-5-yl)amino)-5-fluorophenyl) pentanoic acid], the half-inhibitory concentration (IC50) was below 5 nM.

In turn, “(+/−)-Methyl 3-(4-(isobutyl((1 r,4r)-4-methoxycyclohexyl)amino)-3-(3-(p-tolyl)ureido)phenyl)-4-methoxybutanoate [Example 1005]” registered an IC50 above 50 nM.

In turn, `CCCN(CC1CC1)c1ccc(C(CC)CC(=O)O)cc1Nc1ccc(Cl)cc1` (single isomer, unassigned) [Example 656 E2, 3-(3-((4-Chlorophenyl)amino)-4-((cyclopropylmethyl) (propyl)amino)phenyl)pentanoic Acid] returned a concentration for half-maximal inhibition (IC50) below 5 nM.

Molecule `CCC(CC(=O)O)c1ccc(N(CC)C2CCOCC2)c(NC(=O)Nc2cnc(C)nc2)c1` (single isomer, unassigned) [Example 488 Enantiomer 2, 3-(4-(Ethyl(tetrahydro-2H-pyran-4-yl)amino)-3-(3-(2-methylpyrimidin-5-yl)ureido)phenyl)pentanoic Acid] gave a concentration for half-maximal inhibition (IC50) above 50 nM.

For `CCN(c1ccc(C(C)CC(=O)O)cc1NC(=O)Nc1ccc(Cl)cc1F)C1CCOCC1` (single isomer, unassigned) [Example 637 E2, 3-(3-(3-(4-Chloro-2-fluorophenyl)ureido)-4-(ethyl (tetrahydro-2H-pyran-4-yl)amino)phenyl)butanoic Acid], the half-inhibitory concentration (IC50) is below 5 nM.

The molecule `CCC(CC(=O)O)c1cc(F)c(N(CC(C)C)CC(C)C)c(NC(=O)Cc2ccc(Cl)cc2F)c1` (single isomer, unassigned) [Example 1092 E1] had an IC50 below 5 nM.

The molecule `Cc1ccc(CC(=O)Nc2cc(C(C)CC(=O)O)ccc2N(CC(C)C)C2CCOCC2)cc1` (single isomer, unassigned) [Example 967, 3-(4-(Isobutyl(tetrahydro-2H-pyran-4-yl)amino)-3-(2-(p-tolyl)acetamido)phenyl)butanoic Acid] came in with a half-inhibitory concentration (IC50) below 50 nM.

As to `COCC(CC(=O)O)c1ccc(N(CC(C)C)C2CCCCC2)c(NC(=O)Cc2cc(C)on2)c1` (single isomer, unassigned) [Example 1238, 3-(4-(Cyclohexyl(isobutyl)amino)-3-(2-(5-methylisoxazol-3-yl)acetamido)phenyl)-4-methoxybutanoic Acid], the concentration for half-maximal inhibition (IC50) was above 50 nM.

As to “3-(4-((1,1-dioxidotetrahydro-2H- thiopyran-4-yl)(ethyl)amino)-3-((4- fluorophenyl)amino)phenyl)-4- isopropoxybutanoic acid [Example 338]”, the IC50 is below 50 nM.

The molecule `CCC(CC(=O)O)c1ccc(N(CCC(C)C)C2CCCCC2)c(NC(=O)Cc2ccc(C)cc2)c1` (single isomer, unassigned) [Example 1099 E1] had an IC50 below 50 nM.

The molecule `CCC(CC(=O)O)c1cc(F)c(N(CC(C)C)C2CCCCC2)c(NC(=O)Cc2ccc(C)cc2)c1` (single isomer, unassigned) [Example 1101 E1] gave a half-inhibitory concentration (IC50) below 5 nM.

Molecule `CCC(CC(=O)O)c1ccc(N(CCC(C)C)C2CCCCC2)c(NC(=O)Cc2ccc(C)cc2)c1` (single isomer, unassigned) [Example 1099 E2] had a 50% inhibitory concentration (IC50) below 50 nM.

With `CCC(CC(=O)O)c1ccc(N(CC)C2CCOCC2)c(NC(=O)Nc2ccc(C)cc2)c1` (single isomer, unassigned) [Example 487 Enantiomer 2, 3-(4-(Ethyl(tetrahydro-2H-pyran-4-yl)amino)-3-(3-(p-tolyl)ureido)phenyl)pentanoic Acid], the IC50 was below 5 nM.

`CCOc1ccc(NC(=O)Nc2cc(C(COC)CC(=O)O)cc(F)c2N(CC(C)C)CC(C)C)cc1` (single isomer, unassigned) [Example 1185, 3-(4-(diisobutylamino)-3-(3-(4-ethoxyphenyl)ureido)-5-fluorophenyl)-4-methoxybutanoic acid]: the IC50 is below 5 nM.

The molecule `CCCOc1ncc(Nc2cc(C(CC)CC(=O)O)ccc2N(CC(C)C)C2CCCCC2)cn1` (single isomer, unassigned) [Example 654, 3-(4-(cyclohexyl(isobutyl)amino)-3-((2-propoxypyrimidin-5-yl)amino)phenyl)pentanoic acid] registered a half-inhibitory concentration (IC50) below 5 nM.

`CCN(c1ccc(C(CC(=O)O)c2ccccc2)cc1NC(=O)Nc1ccc(C)cc1)C1CCOCC1` (single isomer, unassigned) [Example 594, 3-(4-(Ethyl(tetrahydro-2H-pyran-4-yl)amino)-3-(3-(p-tolyl)ureido)phenyl)-3-phenylpropanoic Acid] gave an IC50 above 50 nM.

The molecule `CCC(CC(=O)O)c1ccc(N2CCC[C@H]2C(C)(C)F)c(NC(=O)Nc2ccc(OC)cc2F)c1` (single isomer, unassigned) [Example 793] gave an IC50 above 50 nM.

For `CCN(c1ccc([C@H](COC)CC(=O)O)cc1Nc1cnc(C)nc1)C1CCOCC1` (single isomer, unassigned) [Example 416], the concentration for half-maximal inhibition (IC50) is above 50 nM.
